Test results from publication PMC5640672, “Molecular mechanism of synergy between the antimicrobial peptides PGLa and magainin 2” (Scientific Reports, 2017).
No end group written: not given here.

Legend:
S. aureus DSM 1104 = assay: Checker-board assay (FICI); assay type: cell-based, Staphylococcus aureus; conditions: for FICI in combination with MAG2-WT: below 0.5 = synergistic activity
Method: A suitable method to study synergistic antimicrobial activity is the so-called checker-board assay, described in the Methods section. We performed such experiments on one Gram-negative bacterium, E. coli, and one Gram-positive one, S. aureus. From this method a fractional inhibitory concentration index (FICI) is determined, and when this is below 0.5, the peptides are said to have a synergistic effect against bacteria. This is the biologically relevant effect, but we are here interested in the atomistic details of the interactions behind the effect. Therefore we also use biophysical methods.
The antimicrobial activity of the peptides was investigated with a standard MIC assay[87],[88] on one Gram positive (Staphylococcus aureus, DSM 1104, ATCC 25923) and one Gram negative bacterial strain (Escherichia coli, DSM 1103, ATCC 25922). Bacteria were grown in Müller-Hinton medium (MH) at 37 °C and 220 rpm. Overnight cultures were inoculated from a single colony and grown for approximately 16 h. Day cultures were grown for approximately 3 h until they reached the exponential growth phase. These suspensions were diluted with MH-medium to a concentration of 10^6 colony-forming units (CFU) per ml. The microtiter plates (96 wells of 100 µL) were filled with 50 µL of MH, and serial 2-fold dilutions of each peptide were arranged in triplets along the columns. […] Two columns were filled with medium only, to serve as a positive control (bacteria), and as a negative control (no bacteria) to check for contamination of the medium. The bacterial suspension was added in 50 µL aliquots to each well, except for the negative control, to reach a final concentration of 5 × 10^5 CFU/ml. The plates were incubated for 22 h at 37 °C. To each well 20 µL of 0.2 mg/ml Resazurin solution was added and incubated for another two hours. The MIC value was determined visually, as the lowest peptide concentration which inhibited bacterial growth in at least two out of three columns.
To visualize synergy between different peptides, a two-dimensional dilution assay was used[89],[90]. The same bacterial strains were used as in the MIC assay. The procedure of preparing the bacterial suspensions was analogous to the MIC assay, but with a higher final concentration because the volumes in the two setups are different. The main plate (MP) was filled with 40 µl of MH, and serial 2-fold dilutions of the peptide were arranged in each row (8 rows × 7 columns). As described above, the first column was filled with doubly concentrated medium. On another plate (HP, help plate) a second peptide dilution assay was performed, but orthogonal to the main plate. The last row was left empty (7 rows × 8 columns). 40 µL of each well of the HP were transferred to each well of the MP (A1 → A1, etc.). Two columns were filled with medium only, to serve as a positive control (bacteria), and as a negative control (no bacteria) to check for contamination of the medium. The bacterial suspension was added in 20 µL aliquots to each well, except for the negative control, to reach a final concentration of 5 × 10^5 CFU/ml. The plates were incubated for 22 h at 37 °C. To each well 20 µL of 0.1 mg/ml Resazurin solution was added and incubated for another two hours. From these plates, it is possible to determine the MIC value for each of the two peptides, as well as the inhibitory values of the mixtures with 7 × 7 different peptide ratios. From these values, fractional inhibitory concentration indices (FICIs) were calculated with the following formula[89],[91]:1 FICI=[MIC(A)^comb/MIC(A)^alone]+[MIC(B)^comb/MIC(B)^alone] In this formula, MIC(A)^alone is the MIC value determined for peptide A alone, and MIC(A)^comb is the concentration of peptide A at the MIC determined for the combination. The same holds for peptide B. FICI values below 0.5 are taken to indicate a clear synergistic effect, values between 0.5 and 2 an additive effect, and values above 2 an antagonistic effect[89],[92].

[1] = Fluorescence ANTS/DPX vesicle leakage assay in POPE/POPG/TOCL (72:23:5); conditions: POPE/POPG/TOCL (72:23:5) 100 nm vesicles, P/L ≈ 1:30, mixtures 1:1, 10 mM HEPES pH 7.5, 155 mM NaCl, 30 °C, 600 s, % of Triton-X-100 leakage, mean of n = 3
Text: It could be argued that POPC/POPG (3:1) is not the most appropriate model system to describe a bacterial membrane, which rarely contains PC lipids. We therefore also performed leakage in another lipid system, POPE/POPG/TOCL (72:23:5), which is a good model of E. coli membranes[45],[69],[70]. […] For all of the other mutants discussed below, leakage was also studied both in POPC/POPG as well as POPE/POPG/TOCL, but since the results (synergy or no synergy) were in all cases the same, the latter data will not be presented in the text. All leakage data in POPE/POPG/TOCL (72:23:5) for charge mutants are summarized in Supplementary Table S4.
Leakage of small unilamellar vesicles induced by the peptides was studied using a standard fluorescence assay.
The appropriate lipids for each experiment were dissolved in CHCl3, together with 0.02 mol-% Rhodamine-PE (Rh-PE). […] This stock suspension was subjected to 10 freeze-thaw cycles and then frozen. Appropriate aliquots of the stock lipid suspension were unfrozen each day and extruded (41 times) through polycarbonate membranes with 100 nm pore size, and stored at room temperature overnight. The fluorophore and quencher outside the vesicles were removed by size exclusion chromatography using spin-columns (Pierce centrifuge column, 2 ml, Life Technologies GmbH, Darmstadt, Germany) filled with Sephacryl 100-HR (2 min, 1500 × g). For elution, a 10 mM HEPES buffer (pH 7.5) was used, containing 155 mM NaCl to balance the osmolarity. After extrusion and removal of the external dye and quencher, the lipid concentration usually decreases. Therefore, before each set of measurements a rhodamine spectrum was recorded to determine the actual concentration of lipids, which was referenced to a spectrum taken of vesicles made by sonification without any subsequent treatment.
Fluorescence experiments were performed on a FluoroMax2 spectrofluorimeter (HORIBA Jobin Yvon, Unterhaching, Germany) equipped with a thermostated sample holder and magnetic stirrer, using an excitation wavelength of 355 nm, an emission wavelength of 508 nm, and slit widths of 5 nm. The peptide solutions were placed in elution buffer in a 1 cm standard cuvette at 30 °C. 100 s after the start of the measurement lipid vesicles were added, and the intensity of the fluorescence at 508 nm was recorded. The leakage was measured during 600 s after addition of vesicles, and the measurement was terminated after addition of Triton-X-100 (0.25% v/v), which dissolved the vesicles, and yielded 100% leakage. To determine the background signal of the vesicles themselves, several blanks were recorded per measurement set. From the leakage values of the peptides alone and of the mixture of two peptides a synergy factor SF was calculated:3 SF=L(A+B)/[L(A)+L(B)] Here, L(A) is the leakage found with peptide A alone, L(B) is the leakage found with peptide B alone, and L(A + B) is the leakage found with the mixture of peptides A and B. In all cases the P/L was the same for both peptides, alone and in the mixture, so that in the mixture the total P/L was twice that of the individual peptide measurements. […] Measurements were repeated three times and average values and standard deviations calculated for the leakage and the synergy factors. An average SF ≥ 2 was taken to indicate synergy.

[2] = Table S4 series (charge mutants)
[3] = Table S8 series (PGLa-to-MSI mutants)

| Substance | FICI in combination with PGLa-WT (S. aureus DSM 1104) | Leakage, mean value [1, 2] | FICI in combination with MAG2-WT (S. aureus DSM 1104) | Leakage, mean value [1, 3] | Leakage, mean value ([1]; Table S12 series (MSI-to-PGLa mutants)) |
| --- | --- | --- | --- | --- | --- |
| GIGKFLHSAKKFGKAFVGKIMNS-NH 2 (GIGKFLHSAKKFGKAFVGKIMNS-NH2) [MAG2-E19K-amide, amidated MAG2 E19K mutant] | above 0.5 | 2.9% |  |  |  |
| GIGKFLHSAKKFGKAFVGKIMNS-OH [MAG2-E19K, MAG2 charge mutant E19K] | above 0.5 | 1.6% |  |  |  |
| GMASKAGAIAGKIAKIAGKIA-NH2 [PtM-c1, PGLa to MSI-103 mutant, segment C replaced] |  |  | below 0.5 | 1.5% |  |
| GMASKAGKIAGKIAKVALKAL-NH2 (also: 15N-labeled Ala10) [PtM-A8K, PGLa single mutant A8K] |  |  | below 0.5 | 7.1% |  |
| GMASKIGAIAGKIAKVALKAL-NH2 (also: 15N-labeled Ala10) [PtM-A6I, PGLa single mutant A6I] |  |  | below 0.5 | 3.7% |  |
| KIAGKAGAIAGKIAKVALKAL-NH2 [PtM-a2, PGLa to MSI-103 mutant, three amino acids converted] |  |  | below 0.5 | 4.5% |  |
| KIAGKIGKIAGKIAKIAGKIA-NH2 [MtP-A7G, MSI-103 to PGLa single mutant A7G] |  |  | below 0.5 |  | 5.1% |
